Data on seven molecules can be found in patent US9649382B2, “Topical bioadhesive formulations” (CAMURUS AB, priority 2005, dated 2017).

The nature of series [1]: SAXD nanostructure of lipid compositions hydrated with PBS. The class given is physicochemical. Particulars: for API concentration at which the cubic Fd3m structure is not significantly altered / API concentration at which the cubic structure is completely lost / API concentration at which transformation into L2 solution begins: SPC/GDO 35/65, lipid/EtOH/PG 85/10/5, PBS. As to the method:
Aqueous phase behavior was studied by hydrating non-aqueous lipid formulations with phosphate buffered saline (0.01 M phosphate buffer with 0.137 M NaCl and 0.002 M KCl, pH 7.4) at various weight ratios: 2:1, 1:1, 1:2 and 1:9. After brief vortexing, samples were left to equilibrate at room temperature for 1 week before X-ray diffraction measurements.
The nanostructure of hydrated lipid samples was studied using synchrotron small angle X-ray diffraction (SAXD). Measurements were performed at the 1911 beam-line at MAX-lab (Lund University, Sweden), using a Pilatus 1M 165 mm CCD detector with a resolution of 981×1043 pixels at a pixel size of 0.172 mm. The lipid samples were mounted between kapton windows in a steel sample holder at a sample-to-detector distance of 1312 mm. Diffractograms were recorded at the X-ray wavelength of 0.91 Å and a beam size of 0.25×0.25 mm (full width at the half maximum) at the sample. Temperature control within 0.1° C. was achieved using computer controlled Julabo heating circulator F12-MC (Julabo Labortechnik GMBH, Seelbach, Germany). When temperature effects were studied, the experiments were performed successively at 25° C., 37° C. and 42° C. with a 3-min exposure time at each temperature and a wait of 10 minutes between temperature steps. The resulting CCD images were integrated and analysed using the Fit2D software provided by Dr. A. Hammersley (http://www.esrf.fr/computing/scientific/FIT2D). Silver behanate calibrated sample-to-detector distance and detector positions were used.

Series [2] in a line: Depot injected into rat periodontal pocket. Particulars: PC/GDO/EtOH/Gardol (34/51/10/5) injected into rat periodontal pocket. It counts as in vivo. As for the experimental part: In order to treat periodontitis or perimplantitis an antibacterial formulation is injected in the periodontal pocket, and a prolonged effect of the formulation is normally desired. […] The injected composition is observed to transform from the low viscous formulation, and which initially spreads out to fill voids, to form a solid mass by uptake of gingival fluids. An antibacterial depot system is thus provided.
This formulation is injected into the rat periodontal pocket.
Gardol is observed to remain at clinically effective levels in the GCF of the periodontal pockets for a prolonged period (several days).

A short description of series [3]: Surface gel formation of chlorhexidine depots in situ. The class given is physicochemical. Particulars: applied as a liquid, bioadhesive gel in situ. The source says:
For topical bioadhesive, controlled release products for intraoral (including buccal & periodontal) administration; • i. benzydamine (local analgesic, anti inflammatory) or other local analgesic, analgesic, anti inflammatory, anti bacterial, anti fungal or combination thereof. Composition provides sustained effect at intraoral mucosa, in particular damaged, sensitised, infected mucosa e.g. in patients suffering from oral mucositis (induced by e.g. chemo- and radiotherapy). In particular for treatment of oral mucositis. • ii. tramadol (analgesic). […] Particularly for long acting effect in periodontal pocket.

For series [4] the following is noted: stated as clinically effective level; cited from earlier work.

Where a name gives a salt, the structure may show the parent alone. Some results are limits rather than exact numbers.

With `CN(C)CCCOc1nn(Cc2ccccc2)c2ccccc12` [BZD, benzydamine], the “phase formed at lipid formulation to PBS weight ratio of 1:1” value in series [1] (3 wt % BZD, SPC/GDO 35/65) was “cubic Fd3m LC phase is formed”. For the same molecule, in series [1] (3 wt % of BZD, 25° C.), the “effect on Fd3m LC phase at SPC/GDO weight ratio of 30/70” value was “transforms into L2 solution”. The “API concentration at which the cubic Fd3m structure is not significantly altered” value in series [1] is reported as “up to 3.5 wt %”. For `CN1C2CCCC1CC(NC(=O)c1nn(C)c3ccccc13)C2` (stereo not shown) [GRN, Granisetron hydrochloride], in series [1], the “API concentration at which the cubic structure is completely lost” value is given as “about 1.5 wt %” and the “API concentration at which transformation into L2 solution begins” value was 0.8 wt %.

On to `CCCCCCCCCCCC(=O)N(C)CC(=O)[O-].[Na+]` [Gardol, Glycine, N-methyl-N-(1-oxododecyl)-, sodium salt], for which, in series [2], the “time Gardol remains at clinically effective levels in the GCF of the periodontal pockets” value is listed as “several days”. Regarding `CCN(CC)CC(=O)Nc1c(C)cccc1C` [LID, Lidocaine], in series [1], the “API concentration at which the cubic Fd3m structure is not significantly altered” value is recorded as no more than 1.7 wt %, the “API concentration at which the cubic structure is completely lost” value is recorded as “lower than 3 wt %” and the “API concentration at which transformation into L2 solution begins” value was determined as 2 wt %. `CC1(C)O[C@@H]2C[C@H]3[C@@H]4CCC5=CC(=O)C=C[C@]5(C)[C@@]4(F)[C@@H](O)C[C@]3(C)[C@]2(C(=O)CO)O1` [TCA, triamcinolone acetonide]: the “effect on formation and lattice dimensions of the cubic structure” value in series [1] (SPC/GDO 35/65, lipid/EtOH/PG 85/10/5) was “very little effect”. The “API concentration at which the cubic Fd3m structure is not significantly altered” value in series [1] is reported as no less than 5 wt %.

For the molecule `N=C(NCCCCCCNC(=N)NC(=N)Nc1ccc(Cl)cc1)NC(=N)Nc1ccc(Cl)cc1.O=C(O)[C@H](O)[C@@H](O)[C@H](O)[C@H](O)CO.O=C(O)[C@H](O)[C@@H](O)[C@H](O)[C@H](O)CO` [chlorhexidine gluconate], the “Surface gel formation time” value in series [3] is “between 1 second and 5 min”. As to chlorhexidine, in series [4], the MIC (commonly the lowest concentration found to suppress growth) was 125 µg/mL.
